Consider three compounds from patent US20240041042A1, “1-(PYRIDYL)-5-AZINYLPYRAZOLE DERIVATIVES, AND THEIR USE FOR CONTROL OF UNDESIRED PLANT GROWTH” (Bayer Aktiengesellschaft, priority 2020, published 2024).

Like-named read-outs stand apart in the source and are kept apart here.

What all share (type): in vivo
The test system of series [1] is Setaria viridis (SETVI). The series is described as follows: Post-emergence herbicidal action against SETVI. In a few lines:
(§1)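 Rates were 320 g/ha or below, applied as aqueous WP/EC spray with 0.5% additive (600 l/ha) onto one-leaf-stage plants. About 3 weeks later in the greenhouse, damage was scored visually against untreated plants on a 0–100% scale, where 100% means plants died.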

Series [2] deals with Echinochloa crus-galli (ECHCG). The series is described as follows: Post-emergence herbicidal action against ECHCG. The essentials:
as §1

For series [3], the system named is Digitaria sanguinalis (DIGSA). The series is described as follows: Post-emergence herbicidal action against DIGSA. The following applies: 320 g/ha, visual rating about 3 weeks after treatment. The essentials:
as §1

In series [4] the test system is Triticum aestivum (TRZAS). The following applies: crop plant compatibility, 20 g/ha, effect vs untreated controls. In a few lines: (§2)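 Visual rating (% effect vs. untreated plants; 100% = plant death) made about 3 weeks after treatment. Plants had been sprayed at one-leaf stage, 2–3 weeks post-sowing, with aqueous WP/EC preparations containing 0.5% additive, 600 l/ha water volume; a, b, c mark dose levels.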

The subject of a further series is Zea mays (ZEAMX). The note with it: for Post-emergence action against ZEAMX in % (crop plant compatibility): 20 g/ha, effect in comparison to untreated controls. In a few lines: as §2
Another series deals with Oryza sativa (ORYSA). The following applies: crop plant compatibility. The essentials:
as §2

For series [5], the system named is Viola tricolor (VIOTR). The series is described as follows: Post-emergence herbicidal action against VIOTR. In a few lines: as §1
Series [6] has as its system Verconica persica (VERPE). As to the kind of experiment: Post-emergence herbicidal action against VERPE. In a few lines:
as §1

Series [7] relates to Lolium rigidum (LOLRI). The series is described as follows: Post-emergence herbicidal action against LOLRI. The essentials:
as §1

For series [8], the system named is Alopecurus myosuroides (ALOMY). The series is described as follows: Post-emergence herbicidal action against ALOMY. The following applies: visual rating about 3 weeks after treatment vs untreated controls (100% = plants have died, 0% = like control plants). In a few lines:
as §1

Series [9] concerns Amaranthus retroflexus (AMARE). As to the kind of experiment: Pre-emergence herbicidal action against AMARE. The following applies: visual scoring after about 3 weeks vs untreated controls. In a few lines: (§3)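 Herbicide applied to soil before seedling emergence, at 600 l/ha spray volume with 0.5% additive and rates up to 320 g/ha. Evaluation: visual percentage effect, about 3 weeks later, greenhouse-grown pots compared with untreated ones.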

Series [10] has as its system Avena fatua (AVEFA). The series is described as follows: Post-emergence herbicidal action against AVEFA. The following applies: 80 g/ha, visual rating about 3 weeks after treatment. In a few lines:
as §1

The test system of series [11] is Lolium rigidum (LOLRI). The series is described as follows: Pre-emergence herbicidal action against LOLRI. The following applies: dosage 320 g/ha. In a few lines:
as §3

Series [12] deals with Verconica persica (VERPE). As to the kind of experiment: Pre-emergence herbicidal action against VERPE. In a few lines:
as §3

The subject of series [13] is Echinochloa crus-galli (ECHCG). As to the kind of experiment: Pre-emergence herbicidal action against ECHCG. The essentials:
as §3

The test system of series [14] is Matricaria inodora (MATIN). As to the kind of experiment: Post-emergence herbicidal action against MATIN. The following applies: dosage 80 g/ha. In a few lines: as §1
In series [15] the test system is Pharbitis purpurea (PHBPU). The series is described as follows: Post-emergence herbicidal action against PHBPU. The following applies: dosage 80 g/ha. In a few lines: as §1
Series [16] concerns Setaria viridis (SETVI). The series is described as follows: Pre-emergence herbicidal action against SETVI. The essentials:
as §3

Series [17] relates to Matricaria inodora (MATIN). The series is described as follows: Pre-emergence herbicidal action against MATIN. The essentials: as §3
The subject of series [18] is Polygonum convolvulus (POLCO). As to the kind of experiment: Pre-emergence herbicidal action against POLCO. In a few lines:
as §3

In series [19] the test system is Viola tricolor (VIOTR). The series is described as follows: Pre-emergence herbicidal action against VIOTR. The essentials:
as §3

Series [20] has as its system Amaranthus retroflexus (AMARE). As to the kind of experiment: Post-emergence herbicidal action against AMARE. The note with it: 80 g/ha, visual rating about 3 weeks after treatment vs untreated controls (100% = plants have died, 0% = like control plants). The essentials: as §1
In series [21] the test system is Pharbitis purpurea (PHBPU). The series is described as follows: Pre-emergence herbicidal action against PHBPU. The note with it: dosage 320 g/ha. The essentials: as §3
Series [22] relates to Alopecurus myosuroides (ALOMY). The series is described as follows: Pre-emergence herbicidal action against ALOMY. The note with it: scored visually after about 3 weeks, 100% = plants have died. The essentials: as §3
Series [23] deals with Avena fatua (AVEFA). The series is described as follows: Pre-emergence herbicidal action against AVEFA. The following applies: 320 g/ha, visual scoring after about 3 weeks vs untreated controls. The essentials: as §3
[24] abbreviates: 20 g/ha, effect vs untreated controls.
The mark [25] stands for this setting: 80 g/ha, effect in comparison to untreated controls.

Regarding `COC(=O)C(C)NC(=O)C(C)Oc1nn(-c2ccccn2)c(-c2ccc(F)nc2)c1Br` (centres unmarked) [Example I-286], the “Post-emergence action against SETVI in %” value with Setaria viridis (SETVI) [1] (dosage 320 g/ha) was 80%. Besides, the “Post-emergence action against ECHCG in %” value in series [2] (dosage 320 g/ha) is reported as 80%. Further, the “Post-emergence action against DIGSA in %” value in [3] stood at 90%. The “Post-emergence action against TRZAS in %” value in [4] came out at 20%. In addition, the “Post-emergence action against ZEAMX in % (crop plant compatibility)” value with Zea mays (ZEAMX) is given as 10%. The “Post-emergence action against ZEAMX in %” value in the series with Zea mays (ZEAMX) (crop plant compatibility, 80 g/ha, effect vs untreated controls) is 20%. The “Post-emergence action against ORYSA in %” value in the series with Oryza sativa (ORYSA) (setting [24]) is 10%; in the series on Oryza sativa (ORYSA) (setting [25]) it was 20%; in the series on Oryza sativa (ORYSA) (320 g/ha, effect in comparison to untreated controls), 20%. For the same compound, the “Post-emergence action against VIOTR in %” value in the series on Viola tricolor (VIOTR) [5] (320 g/ha) is 80%.

With `COC(=O)[C@@H](C)Oc1nn(-c2ncccc2F)c(-c2ccnc(F)c2)c1Br` [Example I-134], the “Post-emergence action against SETVI in %” value with Setaria viridis (SETVI) [1] (dosage 320 g/ha) amounted to 80%. Further, the “Post-emergence action against VERPE in %” value was 80% in [6] (320 g/ha, VERPE) and 80% in series [6] (dosage 80 g/ha). Moreover, the “Post-emergence action against ECHCG in %” value in [2] (dosage 320 g/ha) stood at 80%. In addition, the results for the “Post-emergence action against LOLRI in %” value in the series with Lolium rigidum (LOLRI) [7] (dosage 80 g/ha) and in the series with Lolium rigidum (LOLRI) [7] (dosage 320 g/ha) were 80% and 90%, respectively. For the same compound, in [3], the “Post-emergence action against DIGSA in %” value was 80%. The “Post-emergence action against ALOMY in %” value in [8] (320 g/ha) worked out at 90%. Besides, the “Post-emergence action against TRZAS in %” value in series [4] is reported as 20%. In addition, in the series with Zea mays (ZEAMX), the “Post-emergence action against ZEAMX in % (crop plant compatibility)” value stood at 10%. The entries for the “Post-emergence action against ORYSA in %” value with Oryza sativa (ORYSA) (setting [24]) and with Oryza sativa (ORYSA) (setting [25]) were 0% and 10%, respectively.

With `CCOC(=O)COc1nn(-c2ncccc2F)c(-c2ccc(F)nc2)c1Br` [Example I-51], the “Post-emergence action against SETVI in %” value with Setaria viridis (SETVI) [1] (dosage 80 g/ha) is given as 90%. Moreover, the “Pre-emergence action against AMARE in %” value in series [9] (80 g/ha) and in [9] (320 g/ha) was 100% each time. In [6] (dosage 80 g/ha), the “Post-emergence action against VERPE in %” value was found to be 80%. In the series on Avena fatua (AVEFA) [10], the “Post-emergence action against AVEFA in %” value worked out at 90%. In addition, the “Pre-emergence action against LOLRI in %” value in the series on Lolium rigidum (LOLRI) [11] was determined as 90%. In addition, the “Pre-emergence action against VERPE in %” value in [12] (dosage 80 g/ha) and in series [12] (dosage 320 g/ha) was 100% in each case. The “Pre-emergence action against ECHCG in %” value in [13] (dosage 80 g/ha) came to 80%; in series [13] (dosage 320 g/ha), 90%. In [14], the “Post-emergence action against MATIN in %” value is listed as 80%. Moreover, the “Post-emergence action against PHBPU in %” value in [15] is given as 90%. Further, the “Post-emergence action against ECHCG in %” value in series [2] (dosage 80 g/ha) is listed as 90%. In addition, the figures for the “Pre-emergence action against SETVI in %” value in the series with Setaria viridis (SETVI) [16] (dosage 80 g/ha) and in the series on Setaria viridis (SETVI) [16] (dosage 320 g/ha) were 90% and 100%, respectively. The “Pre-emergence action against MATIN in %” value in [17] (dosage 80 g/ha) and in [17] (dosage 320 g/ha) was 90% in each case. For the same compound, the “Pre-emergence action against POLCO in %” value in series [18] (dosage 80 g/ha) was 80%; in series [18] (dosage 320 g/ha), 90%. Further, the “Post-emergence action against ALOMY in %” value in series [8] (80 g/ha) was 90%. The “Pre-emergence action against VIOTR in %” value amounted to 100% in the series on Viola tricolor (VIOTR) [19] (320 g/ha, Viola tricolor) and 100% with Viola tricolor (VIOTR) [19] (dosage 80 g/ha). In series [20], the “Post-emergence action against AMARE in %” value was determined as 90%. Besides, the “Pre-emergence action against PHBPU in %” value in [21] came to 90%. For the same compound, the “Pre-emergence action against ALOMY” value in series [22] (80 g/ha) is on record as 90%; in series [22] (320 g/ha), 100%. Besides, the “Pre-emergence action against AVEFA in %” value in the series on Avena fatua (AVEFA) [23] is 90%. For the same compound, the “Post-emergence action against TRZAS in %” value in series [4] is reported as 20%. Moreover, the “Post-emergence action against ZEAMX in % (crop plant compatibility)” value in the series on Zea mays (ZEAMX) is reported as 20%. In addition, in the series on Oryza sativa (ORYSA) (setting [24]), the “Post-emergence action against ORYSA in %” value was found to be 20%. Moreover, the “Post-emergence action against VIOTR in %” value in the series on Viola tricolor (VIOTR) [5] (80 g/ha) came out at 80%.
